Source: US8217164B2, “Use of a lactose-derived C-glycoside compound as an agent for activating and regulating cutaneous immunity” (L'Oreal, priority 2006, dated 2012)

Test system: human peripheral blood cells (lymphocyte proliferation)
Experiment: Immunostimulant activity: lymphocyte proliferation by BrdU labelling
Format: cell-based
Settings: 10 to 0.05 mM, 3 days of culture
Description: The immunostimulant activity is tested in the following way: human peripheral blood cells are cultured in the presence of an RPMI-type culture medium supplemented with L-glutamine (2 mM), penicillin/streptomycin (50 μg/50 IU/ml) and foetal calf serum (10%). The C-glycoside derivatives are added at various concentrations (10 to 0.05 mM), as is phytohaemagglutinin (PHA at 5*G/ml), a positive control for lymphocyte proliferation.

CC(=O)C[C@@H]1O[C@H](CO)[C@@H](OC2O[C@H](CO)[C@H](O)[C@H](O)[C@H]2O)[C@H](O)[C@H]1O (stereo partly shown) [Compound 2]
human lymphocyte proliferation (immunostimulant activity): tendency to stimulate human lymphocyte proliferation at all the concentrations tested
